Values quoted from earlier work, collected in patent publication US12110270B2, “Systems and methods for generation of hyperpolarized materials” (NVISION IMAGING TECHNOLOGIES GMBH, priority 2021, dated 2024).
Where two headings read alike, the source gives them in different places.

In the case of CC(=O)O [acetic acid], the “maximal mole fraction in n-heptane” value (14.8° C.) is listed as 0.935 and the “maximal mole fraction in n-heptane” value (−29.2° C.) is listed as 0.02.
